One data set relates to male C-57 mice. The data set can be described thus: Pre-pulse inhibition testing: reversal of PCP disruption of pre-pulse inhibition of acoustic startle. In kind it is in vivo. As to conditions: route not given (method: PO or SC); 20 minutes prior to PCP 5mg/kg IP.
A further data set has as its system mice. The data set can be described thus: Conditioned avoidance testing (CAR, active avoidance). The format is in vivo. The following applies: S.C. 20 minutes before the test session. As for the experimental part:
Training: Consists of 20 trials with variable inter-trial intervals (Trained to 80% Avoidance Criteria). After a one-minute acclimation period, the house light and an acoustic 90dB tone (conditioned stimuli) are presented. A response (crossing to dark compartment) within 5 seconds ends the trial and trial is recorded as avoidance response (CAR). […] To avoid shock, animals learn to move from the lighted side of the chamber to the dark side when the cue is presented (avoidance) or moved when the shock is administered (escape).Testing: Vehicle or test compounds are administered S.C. 20 minutes before the test session. (Checking for disruption of cognition and attention) Table 3. Conditioned Avoidance Responding

Results on 10 molecules are retold here after patent EP1764134B1, “Purine derivatives linked to arylpiperazines” (Spectrum Pharmaceuticals, Inc., priority 2001, dated 2003).

Description for Caco-2 cells: Caco-2 cells were used to evaluate the membrane permeability of eight embodiments of the present invention. Monolayers were grown to confluence and the integrity checked by transepithelial electrical resistance (TEER) and permeability of Lucifer Yellow. The expression of P-glycoprotein was confirmed by measuring the permeability of digoxin alone and in the presence of verapamil. Permeability measurements were taken for each compound in the apical to basolateral (AP-BL) direction, and the basolateral to apical (BL-AP) direction.
Description for male C-57 mice: The non-competitive NMDA receptor antagonist phencyclidine (PCP) reduces pre-pulse inhibition (PPI) of the acoustic startle response in rodents. […] For testing of PPI, male C-57 mice were assigned to five dose groups of eight animals per group, and vehicle or test compound were administered orally (PO) or subcutaneously (SC) 20 minutes prior to intraperitoneal (IP) administration of vehicle or PCP (5mg/kg). Ten minutes following PCP administration, the mice were placed into Hamilton-Kinder startle chambers and evaluation of pre-pulse inhibition procedure was performed. Following a five-minute acclimatization period with background white noise (65db), mice were exposed to five different trial types. Trials were presented ten-time search in a quasi-random order, with randomized 5 to 25 second inter-trial intervals. Trials were: stimulus only trial (120db white noise, 50ms stimulus); two different prepulse+pulse trials in which a 20ms 5db, or 10db stimuli above a 65db background preceded the 120db pulse by 120ms; a 10dbprepulse without a 120db pulse; and a no stimulus trial, in which only the background noise was presented.

As to `O=C1CCCc2c1ccn2CCCN1CCN(c2cccc(C(F)(F)F)c2)CC1` [NEO-356, 1-{3-[4-(3-Trifluoromethylphenyl)piperazin-1-yl]propyl}-1,5,6,7-tetrahydroindo1-4-one], the PERMEABILITY result in the data set with Caco-2 cells was “High”. In addition, the “PCP Disruption of Pre-pulse Inhibition (result in words)” value (“PCP Disruption of Pre-pulse Inhibition” for short) with male C-57 mice is given as “No reversal”. In the data set on mice, the “Conditioned Avoidance Responding (overall effect / effect on escape or avoidance, in words)” value was “No effect”.
Turning to `O=C1CCCc2c1ccn2CCN1CCN(c2cccc(C(F)(F)F)c2)CC1` [NEO-359, 1-{2-[4-(3-Trifluoromethylphenyl)piperazin-1-yl]ethyl}-1,5,6,7-tetrahydroindol-4-one], the PERMEABILITY entry in the data set on Caco-2 cells was “High”. Besides, the “PCP Disruption of Pre-pulse Inhibition” value in the data set on male C-57 mice is given as “No reversal”. Moreover, in the data set with mice, the “Conditioned Avoidance Responding (overall effect / effect on escape or avoidance, in words)” value is on record as “No effect on escape or avoidance” and the “Conditioned Avoidance Responding: effect on latency (in words)” value is listed as “Significant decrease in latency”.
For `O=C1CCCc2c1ccn2CCCN1CCN(c2cccc(Cl)c2)CC1` [NEO-363, 1-{3-[4-(3-Chlorophenyl)piperazine-1-yl]propyl}-1,5,6,7-tetrahydroindol-4-one], the PERMEABILITY result in the data set with Caco-2 cells was “High”. For the same molecule, in the data set on mice, the “Conditioned Avoidance Responding (overall effect / effect on escape or avoidance, in words)” value is recorded as “No effect”.
Turning to `COc1ccccc1N1CCN(CCCn2ccc3c2CCCC3=O)CC1` [NEO-370, 1-{3-[4-(2-Methoxyphenyl)piperazine-1-yl]propyl}-1,5,6,7-tetrahydroindol-4-one], in the data set with Caco-2 cells, the PERMEABILITY entry is “High”. Moreover, in the data set on mice, the “Conditioned Avoidance Responding: effect on avoidance (in words)” value is reported as “Significant reduction in avoidance” and the “Conditioned Avoidance Responding: effect on latency (in words)” value is “Significant increase in latency”.
With `O=C1CCCc2c1ccn2CCN1CCN(c2cccc(Cl)c2)CC1` [NEO-376, 1-{2-[4-(3-Chloro-phenyl)-piperazin-1-yl]-ethyl}-1,5,6,7-tetrahydro-indol-4-one], the PERMEABILITY result in the data set on Caco-2 cells is “High”. In the data set with mice, the “Conditioned Avoidance Responding (overall effect / effect on escape or avoidance, in words)” value is given as “No effect on escape or avoidance” and the “Conditioned Avoidance Responding: effect on latency (in words)” value is recorded as “significant increase in latency”.
On to `COc1ccccc1N1CCN(CCn2ccc3c2CCCC3=O)CC1` [NEO-377, 1-{2-[4-(2-Methoxyphenyl)-piperazin-1-yl]-ethyl}-1,5,6,7-tetrahydro-indol-4-one], for which the PERMEABILITY result with Caco-2 cells is “High”. In the data set with mice, the “Conditioned Avoidance Responding: effect on avoidance (in words)” value is “Significant reduction in avoidance” and the “Conditioned Avoidance Responding: effect on latency (in words)” value is reported as “Significant increase in latency”.
As to `O=C1CCCc2c1ccn2CCCN1CCN(c2ncccn2)CC1` [NEO-381, 1-{3-[4-(2-Pyrimidyl)piperazine-1-yl]propyl}-1,5,6,7-tetrahydroindol-4-one], the PERMEABILITY result in the data set on Caco-2 cells is reported as “High”. In addition, the “PCP Disruption of Pre-pulse Inhibition” value with male C-57 mice was “No reversal”. Further, in the data set on mice, the “Conditioned Avoidance Responding (overall effect / effect on escape or avoidance, in words)” value is listed as “No effect”.
For `O=C1CCCc2c1ccn2CCCCN1CCN(c2cccc(C(F)(F)F)c2)CC1` [NEO-392, 1-{4-[4-(3-Trifluoromethylphenyl)piperazin-1-yl]butyl}-1,5,6,7-tetrahydroindol-4-one], the PERMEABILITY entry with Caco-2 cells is “High”. In the data set on mice, the “Conditioned Avoidance Responding: effect on avoidance (in words)” value is “Significant reduction in avoidance” and the “Conditioned Avoidance Responding: effect on latency (in words)” value is given as “Significant increase in latency”.
Regarding `CC(C)NCC(O)COc1cccc2ccccc12` (stereo not drawn) [Propranolol, reference compound], the PERMEABILITY entry in the data set with Caco-2 cells was “High”.
For the molecule `Cc1nc2n(c(=O)c1CCN1CCC(c3noc4cc(F)ccc34)CC1)CCCC2` [Risperidone, risperidone, reference compound], in the data set on mice, the “Conditioned Avoidance Responding: effect on avoidance (in words)” value is “Significant reduction in avoidance” and the “Conditioned Avoidance Responding: effect on latency (in words)” value is “Significant increase in latency”.
